Assay results taken from patent US9981912B2, “Cocrystal of lorcaserin, preparation methods, pharmaceutical compositions and uses thereof” (priority 2014, dated 2018).
Counter-ions that a name gives are not always drawn.

What was measured:
[1] = Storage stability at 25° C., 60% RH for 6 months; type: physicochemical
[2] = disclosed in WO2006/069363A2; cited from earlier work
[3] = Solubility in pure water at 25° C. (Test Example 1)

Compound	purity and crystalline form after storage [1]	hygroscopicity [2]	stability among crystalline Forms I, II and III [2]	solubility ([3]; in water, 25° C., listed as Lorcaserin hydrochloride hemihydrate (the known)) [mg/mL]	solubility ([3]; pure water, 25 °C, water, thermodynamic from solid) [mg/mL]
cocrystal of lorcaserin hydrochloride and benzoic acid [the cocrystal]	unchanged				
C[C@H]1CNCCc2ccc(Cl)cc21 [lorcaserin hydrochloride hemihydrate, (R)-8-chloro-1-methyl-2,3,4,5-tetrahydro-1H-3-benzazepine]		poor hygroscopicity	the most stable form	>200	> 200
